{"source": "patent US20260138976A1", "about": "(Hoffmann-La Roche Inc., priority 2022, published 2026)", "tested_on": "primary human T-cells", "experiment": "Proliferation assay (5 days, CellTiter-Glo, CD3-stimulated T-cells)", "format": "cell-based", "details": "for Emax proliferation (% activation): CD3 condition, normalised to DMSO (neutral) and 20 μM reference compound A1 = 100%; for EC50: Homo sapiens, T-cell, 120 h, CD3-stimulated primary human T-cells, 5 days, CellTiter-Glo, fitted sigmoidal curve, read-out: Tcell Proliferation CD3 EC50", "procedure,_shortened": "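Expanded primary human T-cells, 100 k cells/well, were stimulated with plate-coated CD3 antibody (donor-titrated) and given compound in a 5 or 6 pt dose response from 20 μM or 10 μM final top, 0.2% DMSO final. ATP was read by CellTiter-Glo after 5 days. EC50 and Emax were reported as % of 20 μM reference compound A1.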", "data": [{"smiles": "Cn1ccc(-c2ccc(CN3C(=O)[C@@H](N)CS(=O)(=O)c4cc(F)c(-c5nnc(C(C)(C)C)o5)cc43)cc2)n1", "note": "[Example 1, (3R)-3-amino-7-(5-tert-butyl-1,3,4-oxadiazol-2-yl)-8-fluoro-5-[[4-(1-methylpyrazol-3-yl)phenyl]methyl]-1,1-dioxo-2,3-dihydro-1λ^6,5-benzothiazepin-4-one]", "values": [{"measurement": "Emax proliferation (% activation)", "result": 73, "unit": "% activation"}, {"measurement": "EC50", "result": 843, "unit": "nM"}]}, {"smiles": "Cc1noc(-c2ccc(CN3C(=O)[C@@H](N)CS(=O)(=O)c4cc(F)c(-c5nnc(C(C)(C)C)o5)cc43)cc2)n1", "note": "[Example 2]", "values": [{"measurement": "Emax proliferation (% activation)", "result": 143, "unit": "% activation"}, {"measurement": "EC50", "result": 296, "unit": "nM"}]}, {"smiles": "CC(C)Nc1nnc(-c2cc3c(cc2F)S(=O)(=O)C[C@H](N)C(=O)N3Cc2ccc(-c3noc(C(F)(F)F)n3)cc2)o1", "note": "[Example 6, (3R)-3-amino-8-fluoro-7-[5-(isopropylamino)-1,3,4-oxadiazol-2-yl]-1,1-dioxo-5-[[4-[5-(trifluoromethyl)-1,2,4-oxadiazol-3-yl]phenyl]methyl]-2,3-dihydro-1λ^6,5-benzothiazepin-4-one]", "values": [{"measurement": "Emax proliferation (% activation)", "result": 109, "unit": "% activation"}, {"measurement": "EC50", "result": 765, "unit": "nM"}]}, {"smiles": "CC(C)(C)c1nc(-c2cc3c(cc2F)S(=O)(=O)C[C@H](N)C(=O)N3Cc2ccc(-c3ccc(CO)cc3)nc2)no1", "note": "[Example 7, (3R)-3-amino-7-(5-tert-butyl-1,2,4-oxadiazol-3-yl)-8-fluoro-5-[[6-[4-(hydroxymethyl)phenyl]-3-pyridyl]methyl]-1,1-dioxo-2,3-dihydro-1λ^6,5-benzothiazepin-4-one]", "values": [{"measurement": "Emax proliferation (% activation)", "result": 97, "unit": "% activation"}, {"measurement": "EC50", "result": 3520, "unit": "nM"}]}, {"smiles": "N[C@H]1CS(=O)(=O)c2cc(F)c(-c3noc(N4CCCC4)n3)cc2N(Cc2ccc(-c3noc(C(F)(F)F)n3)nc2)C1=O", "note": "[Example 15, (3R)-3-amino-8-fluoro-1,1-dioxo-7-(5-pyrrolidin-1-yl-1,2,4-oxadiazol-3-yl)-5-[[6-[5-(trifluoromethyl)-1,2,4-oxadiazol-3-yl]-3-pyridyl]methyl]-2,3-dihydro-1λ^6,5-benzothiazepin-4-one]", "values": [{"measurement": "Emax proliferation (% activation)", "result": 64, "unit": "% activation"}, {"measurement": "EC50", "result": 3200, "unit": "nM"}]}, {"smiles": "Cn1ccc(-c2ccc(CN3C(=O)[C@@H](N)CS(=O)(=O)c4ccc(-c5nnc(C(C)(C)C)o5)cc43)cc2)n1", "note": "[Example 21]", "values": [{"measurement": "Emax proliferation (% activation)", "result": 63, "unit": "% activation"}, {"measurement": "EC50", "result": 7060, "unit": "nM"}]}, {"smiles": "CC(C)(C)c1nnc(-c2ccc3c(c2)N(Cc2ccc(-c4noc(C(F)(F)F)n4)cc2)C(=O)[C@@H](N)CS3(=O)=O)o1", "note": "[Example 23, (3R)-3-amino-7-(5-tert-butyl-1,3,4-oxadiazol-2-yl)-1,1-dioxo-5-[[4-[5-(trifluoromethyl)-1,2,4-oxadiazol-3-yl]phenyl]methyl]-2,3-dihydro-1λ^6,5-benzothiazepin-4-one]", "values": [{"measurement": "Emax proliferation (% activation)", "result": 136, "unit": "% activation"}, {"measurement": "EC50", "result": 316, "unit": "nM"}]}, {"smiles": "CC(C)(C)c1nnc(-c2ccc3c(c2)N(Cc2ccc(-n4cc(C(F)(F)F)cn4)cc2)C(=O)[C@@H](N)CS3(=O)=O)o1", "note": "[Example 25, (3R)-3-amino-7-(5-tert-butyl-1,3,4-oxadiazol-2-yl)-1,1-dioxo-5-[[4-[4-(trifluoromethyl)pyrazol-1-yl]phenyl]methyl]-2,3-dihydro-1λ^6,5-benzothiazepin-4-one]", "values": [{"measurement": "Emax proliferation (% activation)", "result": 131, "unit": "% activation"}, {"measurement": "EC50", "result": 2930, "unit": "nM"}]}, {"smiles": "CC(C)(C)c1nnc(-c2ccc3c(c2)N(Cc2ccc(-n4ccc(C(F)(F)F)n4)cc2)C(=O)[C@@H](N)CS3(=O)=O)o1", "note": "[Example 27]", "values": [{"measurement": "Emax proliferation (% activation)", "result": 212, "unit": "% activation"}, {"measurement": "EC50", "result": 252, "unit": "nM"}]}, {"smiles": "CC(C)(C)c1nnc(-c2ccc3c(c2)N(Cc2ccc(-n4cnc(C(F)(F)F)c4)cc2)C(=O)[C@@H](N)CS3(=O)=O)o1", "note": "[Example 28, (3R)-3-amino-7-(5-tert-butyl-1,3,4-oxadiazol-2-yl)-1,1-dioxo-5-[[4-[4-(trifluoromethyl)imidazol-1-yl]phenyl]methyl]-2,3-dihydro-1λ^6,5-benzothiazepin-4-one]", "values": [{"measurement": "Emax proliferation (% activation)", "result": 108, "unit": "% activation"}, {"measurement": "EC50", "result": 3510, "unit": "nM"}]}]}
